Measured values: BindingDB's records for doi:10.1124/jpet.104.081539 (Kyowa Hakko Kogyo, 2005)

Biological target: T1, 5-hydroxytryptamine receptor 1A (Homo sapiens, UniProt P08908)
T1 sequence (P08908 whole entry): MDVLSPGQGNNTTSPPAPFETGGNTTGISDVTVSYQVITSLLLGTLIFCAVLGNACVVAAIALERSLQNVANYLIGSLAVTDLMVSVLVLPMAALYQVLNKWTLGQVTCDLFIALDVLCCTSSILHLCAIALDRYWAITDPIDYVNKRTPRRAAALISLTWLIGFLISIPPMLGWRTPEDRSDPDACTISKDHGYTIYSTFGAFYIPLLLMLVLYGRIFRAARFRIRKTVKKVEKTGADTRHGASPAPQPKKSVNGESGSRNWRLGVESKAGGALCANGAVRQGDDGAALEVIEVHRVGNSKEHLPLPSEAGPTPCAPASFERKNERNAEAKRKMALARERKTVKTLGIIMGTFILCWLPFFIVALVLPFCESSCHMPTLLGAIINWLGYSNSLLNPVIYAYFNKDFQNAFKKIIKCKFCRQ

Row | Compound | Ki
1 | CCC(=O)N1c2ccccc2C(N(C(C)=O)c2ccccc2)CC1C (configuration not stated) [K376] | > 1 µM
2 | CC1CC(N(C(=O)C2CC2)c2ccccc2)c2ccccc2N1C(=O)c1ccccc1 (configuration not stated) [K604] | > 1 µM
